Results published in ChEMBL document CHEMBL5247584, “Design, synthesis and evaluation of fused hybrids with acetylcholinesterase inhibiting and Nrf2 activating functions for Alzheimer's disease” (Eur J Med Chem, 2022).
Calls of active or inactive are those of the source. No cut-off for these calls is given here.

Legend:
Mus musculus [1] = experiment: Cognitive enhancing effect in amyloid beta (1 to 42)-induced ICR mouse model assessed as increase in ACh level at 20 mg/kg […] by ELISA; type: functional, organism-based
SH-SY5Y = experiment: Antiproliferative activity against human SH-SY5Y cells assessed as reduction in cell viability measured for 24 hrs by MTT assay; type: functional, cell-based
[2] = target: T1, Nuclear factor erythroid 2-related factor 2 (Rattus norvegicus) (UniProt O54968); experiment: Activation of Nrf2 pathway in rat PC-12 cells assessed as fold increase in NQO1 expression level at 1 to 20 uM measured at 6 hrs by qRT-PCR analysis; type: cell-based; conditions: PC12, filed as activator, dose 1-20 µM
T1 sequence (whole entry): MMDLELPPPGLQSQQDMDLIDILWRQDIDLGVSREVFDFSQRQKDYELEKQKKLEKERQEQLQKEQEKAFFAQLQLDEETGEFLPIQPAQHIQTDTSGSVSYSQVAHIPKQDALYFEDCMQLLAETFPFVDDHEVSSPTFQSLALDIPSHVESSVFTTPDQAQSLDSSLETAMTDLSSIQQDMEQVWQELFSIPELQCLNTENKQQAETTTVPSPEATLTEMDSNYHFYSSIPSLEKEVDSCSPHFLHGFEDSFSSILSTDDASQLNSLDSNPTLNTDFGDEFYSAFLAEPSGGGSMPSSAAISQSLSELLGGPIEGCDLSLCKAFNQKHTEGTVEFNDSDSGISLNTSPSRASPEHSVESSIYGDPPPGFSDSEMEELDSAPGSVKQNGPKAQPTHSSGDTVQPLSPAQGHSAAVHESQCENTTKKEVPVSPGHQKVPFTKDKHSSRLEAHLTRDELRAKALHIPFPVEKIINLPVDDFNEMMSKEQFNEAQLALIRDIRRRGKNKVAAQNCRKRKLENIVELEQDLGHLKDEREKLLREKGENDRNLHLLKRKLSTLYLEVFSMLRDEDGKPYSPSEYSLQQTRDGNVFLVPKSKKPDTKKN

Cholinesterase = Cholinesterase (Equus caballus, UniProt P81908); experiment: Inhibition of equine serum BuChE using ATC and BTC iodide as substrate preincubated for 5 mins followed by substrate addition and measured after 2 mins by DTNB reagent based assay
Chain of Cholinesterase (P81908 whole entry): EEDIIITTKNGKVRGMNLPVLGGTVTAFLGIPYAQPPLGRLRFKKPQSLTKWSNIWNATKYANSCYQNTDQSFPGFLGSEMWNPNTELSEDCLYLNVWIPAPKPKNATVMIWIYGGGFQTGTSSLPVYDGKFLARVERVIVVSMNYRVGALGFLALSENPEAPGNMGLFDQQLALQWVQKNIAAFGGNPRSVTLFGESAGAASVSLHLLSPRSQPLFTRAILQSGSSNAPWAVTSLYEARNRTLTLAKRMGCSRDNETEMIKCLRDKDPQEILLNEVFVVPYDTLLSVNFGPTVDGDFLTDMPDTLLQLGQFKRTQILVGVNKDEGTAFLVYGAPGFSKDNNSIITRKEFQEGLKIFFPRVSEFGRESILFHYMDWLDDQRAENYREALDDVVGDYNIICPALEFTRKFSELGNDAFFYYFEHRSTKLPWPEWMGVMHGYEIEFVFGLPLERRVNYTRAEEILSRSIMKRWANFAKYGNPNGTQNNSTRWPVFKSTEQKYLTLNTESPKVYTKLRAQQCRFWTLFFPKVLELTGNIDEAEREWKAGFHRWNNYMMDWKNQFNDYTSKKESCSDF

[3] = target: T1, Nuclear factor erythroid 2-related factor 2 (Rattus norvegicus); experiment: Activation of Nrf2 pathway in rat PC-12 cells assessed as increase in NQO1 level at 20 uM measured after 6 hrs by Western blot analysis; type: cell-based; conditions: PC12, filed as activator
[4] = Hepatotoxicity in […] assessed as effect on AST level; type: toxicity, cell-based
Mus musculus [5] = experiment: Antialzheimer activity against scopolamine-induced cognitive impairment ICR mouse model assessed as decrease in arrival time at 3 mg/kg, po administered once a day for 10 days and measured after 5 to 10 days by Morris water maze test; type: functional, organism-based; conditions: time 5-10 day
[6] = Hepatotoxicity in […] assessed as effect on ALT level; type: toxicity, cell-based
[7] = target: T1, Nuclear factor erythroid 2-related factor 2 (Rattus norvegicus); experiment: Activation of Nrf2 pathway in rat PC-12 cells assessed as fold increase in Nrf2 level at 20 uM measured at 2 hrs by qRT-PCR analysis; type: cell-based; conditions: PC12, filed as activator
PC-12 = experiment: Cytoprotective activity against H2O2-induced cell damage in rat PC12 cells assessed as reduction in cell injury measured after 24 hrs by MTT assay relative to control; type: functional, cell-based; conditions: dose 1-20 µM
[8] = target: T1, Nuclear factor erythroid 2-related factor 2 (Rattus norvegicus); experiment: Activation of Nrf2 pathway in rat PC-12 cells assessed as fold increase in NQO1 level at 20 uM measured at 2 hrs by qRT-PCR analysis; type: cell-based; conditions: PC12, filed as activator
[9] = target: T1, Nuclear factor erythroid 2-related factor 2 (Rattus norvegicus); experiment: Activation of Nrf2 pathway in rat PC-12 cells assessed as fold increase in HO-1 expression level at 1 to 20 uM measured at 6 hrs by qRT-PCR analysis; type: cell-based; conditions: PC12, filed as activator, dose 1-20 µM
Acetylcholinesterase = Acetylcholinesterase (Homo sapiens, UniProt P22303); experiment: Inhibition of human AChE using ATC and BTC iodide as substrate preincubated for 5 mins followed by substrate addition and measured after 2 mins by DTNB reagent based assay
Chain of Acetylcholinesterase (P22303 whole entry): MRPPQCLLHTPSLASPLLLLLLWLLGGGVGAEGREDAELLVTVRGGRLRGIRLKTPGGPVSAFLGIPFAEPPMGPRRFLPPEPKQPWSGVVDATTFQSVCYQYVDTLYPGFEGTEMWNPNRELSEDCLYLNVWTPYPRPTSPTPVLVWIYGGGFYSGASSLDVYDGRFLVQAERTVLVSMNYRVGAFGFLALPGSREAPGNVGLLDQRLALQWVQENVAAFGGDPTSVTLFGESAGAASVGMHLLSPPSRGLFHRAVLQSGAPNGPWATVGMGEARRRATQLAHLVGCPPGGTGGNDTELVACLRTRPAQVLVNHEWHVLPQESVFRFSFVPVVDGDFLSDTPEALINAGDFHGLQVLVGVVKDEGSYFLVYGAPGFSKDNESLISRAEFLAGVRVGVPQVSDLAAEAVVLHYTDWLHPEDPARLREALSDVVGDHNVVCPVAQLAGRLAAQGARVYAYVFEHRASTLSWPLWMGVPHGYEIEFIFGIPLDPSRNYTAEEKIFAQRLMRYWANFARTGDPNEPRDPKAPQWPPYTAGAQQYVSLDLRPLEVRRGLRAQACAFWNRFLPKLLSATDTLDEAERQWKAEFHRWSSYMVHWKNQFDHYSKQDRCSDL

[10] = target: T1, Nuclear factor erythroid 2-related factor 2 (Rattus norvegicus); experiment: Activation of Nrf2 pathway in rat PC-12 cells assessed as fold increase in GCLM expression level at 1 to 20 uM measured at 6 hrs by qRT-PCR analysis; type: cell-based; conditions: PC12, filed as activator, dose 1-20 µM

## Cc1ccc(-c2noc(-c3cccc(OCC4CCN(Cc5cccc(F)c5)CC4)c3)n2)cn1
Mus musculus [1]
  Activity: inactive
SH-SY5Y
  Activity: inactive
[2]
  fold change (FC): 4
Cholinesterase
  IC50: 8.15 µM
[3]
  Activity: Active
[4]
  Activity: Non-Toxic
Mus musculus [5]
  Activity: Active
[6]
  Activity: Non-Toxic
[7]
  fold change (FC): 4
PC-12
  Activity: Dose-Dependent Effect
[8]
  fold change (FC): 8
[9]
  fold change (FC): 4
Acetylcholinesterase
  IC50: 0.38 µM
[10]
  fold change (FC): 4
